What is called IC50 is the concentration at which inhibition is half-maximal. High values mean a need for much substance, low ones inhibition by little substance.

The subject of assay [1] is purified tubulin. As to the kind of experiment: In vitro inhibition of tubulin polymerization. Type of assay: biochemical. The note with it: purified bovine brain tubulin 1.5 mg/ml, preincubated 15 minutes at 37° C., GTP-induced, 350 nm. As for the experimental part:
IC50 values for tubulin polymerization were determined according to a previously described procedure (Bai et al., Cancer Research, 1996) and are summarized in Table 3 below. Purified tubulin is obtained from bovine brain cells as previously described (Hamel and Lin, Biochemistry, 1984). Various amounts of inhibitor were preincubated for 15 minutes at 37° C. with purified tubulin. After the incubation period, the reaction was cooled and GTP was added to induce tubulin polymerization. Polymerization was then monitored in a Gilford spectrophotometer at 350 nm. The final reaction mixtures (0.25 ml) contained 1.5 mg/ml tubulin, 0.6 mg/ml microtubule-associated proteins (MAPs), 0.5 mM GTP, […], 4% DMSO and 0.1M 4-morpholineethanesulfonate buffer (MES, pH 6.4). IC50 is the amount of inhibitor needed to inhibit tubulin polymerization 50% with respect to the amount of […] that occurs in the absence of inhibitor.

Assay [2] deals with SF-268. As to the kind of experiment: In vitro growth inhibition, SRB assay, CNS SF-268. Type of assay: cell-based. The note with it: Homo sapiens, CNS SF-268, 48 hours incubation, read-out: GI50 (μM/mL) for Cell Line SF-268. As to the method: (§1) Newly prepared compounds were evaluated for cytotoxic activity against a variety of cell lines derived from human tumors using an assay system similar to the National Cancer Institute procedure previously described (Monks et al., J. Natl. Cancer Inst., 1991). Briefly, the cell suspensions, diluted according to the particular cell type and the expected target cell density (5,000-40,000 cells per well based on cell growth characteristics), were added by pipet (100 ul) to 96-well microtiter plates. Inoculates were allowed a preincubation time of 24-28 hours at 37 C for stabilization. Incubation with the inhibitor compounds lasted for 48 hours in 5% CO2 atmosphere and 100% humidity. Determination of cell growth was performed by in situ fixation of cells, followed by staining with a protein-binding dye sulforhodamine B (SRB), which binds to the basic amino acids of cellular macromolecules. The solubilized stain was measured spectrophotometrically.
(§2) Several compounds were evaluated for cytotoxic activity against […] P388 leukemia cell lines. The effective dose or ED50 value (defined as the effective dosage required for inhibition of 50% of cell growth) was measured. These and additional compounds were evaluated in terms of growth inhibitory activity against several other human cancer cell lines including: central nervous system (“CNS”, SF-268), pancreas (BXPC-3), non-small cell lung cancer (“lung-NSC”, NCI-H460), breast (MCF-7), colon (KM20L2), ovarian (OVCAR-3), and prostate (DU-145). The growth inhibition GI50 (defined as the dosage required for inhibition of tumor cell growth by 50%) is listed for each cell line.
(In general: In SRB staining, fixed cells bind dye roughly in proportion to their protein.)

In assay [3] the test system is BXPC-3. As to the kind of experiment: In vitro growth inhibition, SRB assay, pancreas BXPC-3. The note with it: Homo sapiens, 48 hours incubation, read-out: GI50 (μM/mL) for Cell Line BXP-3. In kind it is cell-based. As for the experimental part: as §1, §2
Assay [4] deals with NCI-H460. As to the kind of experiment: In vitro growth inhibition, SRB assay, lung-NSC NCI-H460. The conditions noted are these: Homo sapiens, lung-NSC NCI-H460, 48 hours incubation, read-out: GI50 (μM/mL) for Cell Line NCI-H460. Type of assay: cell-based. As to the method:
as §1, §2

Assay [5] concerns MCF-7. The assay is described as follows: In vitro growth inhibition, SRB assay, breast MCF-7. In kind it is cell-based. The note with it: Homo sapiens, MCF7, breast MCF-7, 48 hours incubation, read-out: GI50 (μM/mL) for Cell Line MCF-7. As to the method: as §1, §2
Assay [6] relates to KM20L2. As to the kind of experiment: In vitro growth inhibition, SRB assay, colon KM20L2. The conditions noted are these: Homo sapiens, KM-20L2, colon KM20L2, 48 hours incubation, read-out: GI50 (μM/mL) for Cell Line KM20L2. Type of assay: cell-based. As for the experimental part: as §1, §2
In assay [7] the test system is DU-145. As to the kind of experiment: In vitro growth inhibition, SRB assay, prostate DU-145. The note with it: Homo sapiens, prostate DU-145, 48 hours incubation, read-out: GI50 (μM/mL) for Cell Line DU-145. In kind it is cell-based. As for the experimental part: as §1, §2

Values after ≈ are worked out from the molar mass of the structure shown.

As for `COc1ccc(/C=C\c2cc(OC)c(OC)c(OC)c2)cc1O` [CA-4, Combretastatin A-4, reference compound], in assay [1], the IC50 was […].

Compound `COc1ccc2c(c1)CCCC(c1cc(OC)c(OC)c(OC)c1)=C2` [Compound 1, 3-Methoxy-8-(3,4,5-trimethoxy-phenyl)-6,7-dihydro-5H-benzocycloheptene] showed an IC50 in assay [1] of around 40 µM. Moreover, the GI50 in assay [2] is 0.28 µg/mL (≈ 0.823 µM); in assay [3] it was 0.4 µg/mL (≈ 1.18 µM); in assay [4], 0.23 µg/mL (≈ 0.676 µM); in assay [5], 0.32 µg/mL (≈ 0.94 µM); in assay [6], 0.2 µg/mL (≈ 0.588 µM); in assay [7] it was 0.33 µg/mL (≈ 0.969 µM).

In assay [1], `COc1ccc2c(c1)CCCC=C2c1cc(OC)c(OC)c(OC)c1` [Compound 2, 3-Methoxy-9-(3,4,5-trimethoxy-phenyl)-6,7-dihydro-5H-benzocycloheptene] gave an IC50 of 1.4 ± 0.2 µM. Besides, the GI50 in assay [2], in assay [3], in assay [4], in assay [5], in assay [6] and in assay [7] was above 10 µg/mL throughout.

Compound `COc1ccc2c(c1O)CCCC(c1cc(OC)c(OC)c(OC)c1)=C2` [Compound 3, 2-Methoxy-6-(3,4,5-trimethoxy-phenyl)-8,9-dihydro-7H-benzocyclohepten-1-ol] returned an IC50 in assay [1] of around 40 µM.

In turn, `COc1ccc(C(=O)C2=CCCCc3c2cc(OC)c(OC)c3OC)c(O)c1O` [Compound 23, (2,3-Dihydroxy-4-methoxy-phenyl)-(1,2,3-trimethoxy-8,9-dihydro-7H-benzocyclohepten-5-yl)-methanone] yielded an IC50 in assay [1] of around 40 µM. The GI50 in assay [2] turned out to be 0.009 µg/mL (≈ 0.0225 µM); in assay [3] it was 0.017 µg/mL (≈ 0.0425 µM); in assay [4] it was 0.023 µg/mL (≈ 0.0574 µM); in assay [5] it was 0.0059 µg/mL (≈ 0.0147 µM); in assay [6], 0.031 µg/mL (≈ 0.0774 µM); in assay [7], 0.026 µg/mL (≈ 0.0649 µM).

In assay [1], `COc1ccc(C(=O)C2=CCCCc3c2cc(OC)c(OC)c3OC)cc1O` [Compound 24, (3-Hydroxy-4-methoxy-phenyl)-(1,2,3-trimethoxy-8,9-dihydro-7H-benzocyclohepten-5-yl)-methanone] displayed an IC50 of around 40 µM.
